# Laboratory results from patent US20020164367A1, “Botanical drug for increasing immunity and decreasing side effects of chemotherapy” (priority 2001, published 2002).
# Assays:
# white blood cells = conditions: rats, 10 days of treatment
# lymphocytes = conditions: 3H-TdR 1 μCi/ml, PHA stimulated
# Method: 0.2 ml of formic acid was then added for digestion till the precipitate was dissolved.
# [1] = tested on: bone marrow stem cells (CFU-S); conditions: mice, n=10
# Interleukin-2 (rIL-2) = assay: Effect of BDI on Interleukin-2 (rIL-2); assay type: in vivo; conditions: n=10
# Description: The methods of determination rIL-2 were regular.
# peritoneal macrophage = conditions: macrophages with phagocytized chick red blood cells per 100 macrophages; BDI 5.5 mg/kg ip daily for 5 days; cyclophosphamide 4.5 mg/kg ip
# Method: Male mice weight 18-20 g were used in the experiments and were divided into treated (BDI) and control groups. The dosage of BDI was 5.5 mg/kg injected intraperitoneally. The control mice were injected with same volume of normal saline. These injections were repeated daily for 5 days, both treated and control group were injected intraperitoneally with cyclosphosphamide.
# Added 0.02 ml of 5% washed chick red blood cell suspension to 0.5 ml of the peritoneal exudates. Shook gently to mix and incubate at 37° C. for 5 minutes. Dipped two cover slips, closed to each other, in the above mixture and incubated for 30 minutes for the migration of the macrophages along the cover slips, fixed and stained with Sharma stain. Examined microscopically for:
# Phagocytic rate—number of macrophages with phagocytized chick red blood cells per 100 macrophages counted.
# DNA viruses = conditions: by weight; cited from earlier work
# host cell = conditions: by weight; cited from earlier work
# chick myocardial cell = assay: Survival rate of chick myocardial cells after Adriamycin induced damage (ABC immunoperoxidase staining); assay type: cell-based; conditions: Adriamycin 10μ for 24 hours after 4 days in culture; BDI 150 μg/ml
# Method: Hears were removed from 11 days embryos and were dissociated at 37 C. for 45 minutes with 0.25% trypsin (sigma, type III), 0.025% collagenase (sigma, type I), and 0.005% pancreatin (NBCO) prepared in calcium and magnesium free saline G containing 4% chicken serum. Then the tissue was dispersed into a single cell suspension in culture medium containing 5 g/ml DNAse I (sigma). Viable cell counts were determined by hemocyometer counting. Cells were dispersed into 60 mm culture disher (surface area 2000 mm^2) at densities of 200 cells/mm^2.
# Cultures were maintained in Ham's F-12K cln^− modified and supplemented with 5% fetal bovine serum. Tissue culture plates were incubated under at constant 5% CO2 and 95% air at 37° C. Cells counted—all cells were counted in 20 randomly selected fields across the entire dish. A Zeiss microscope 25× objective having a field of view of 0.32 mm^2 was used for cell counting.
# Monoclonal antibodies (diluted 1:1000 in PBS/BSA) were used. Immunostaining procedure used modified method of immunoperoxidase staining as follows.
# Culture plates were added antibody of cardiac myosin before 3 hours for staining. Then culture plates continuous incubated 3 hours at 37° C.
# Cell determined by recording the color and the number of microscopic fields (250×). Normal cells were light green and dead cells were brown or very dark green. […]
structure (smiles),measurement,setting,value
O=P1(N(CCCl)CCCl)NCCCO1 (centres unmarked) [Cyclophosphamide],White blood cells x 10^3/cm^3 ± SD,white blood cells,6.0 ± 0.70 10^3/cm^3
same,CPM ± SD (lymphoblastoid transformation),lymphocytes,600 ± 65 CPM
same,Mean (CFU-S ± SD),[1],7.6 ± 0.8
same,IL-2 (U/ml) ± SD,Interleukin-2 (rIL-2),47.5 ± 5.5 U/ml
same,Phagocytic (rate ± SD),peritoneal macrophage,8.5 ± 0.90
Nc1ccn([C@@H]2O[C@H](CO)[C@@H](O)[C@@H]2O)c(=O)n1 [Cytarabine],Effectiveness relative to Idoxuridine,DNA viruses,about 10 times
same,Toxicity for host cell relative to Idoxuridine,host cell,10 times
COc1cccc2c1C(=O)c1c(O)c3c(c(O)c1C2=O)C[C@@](O)(C(=O)CO)C[C@@H]3O[C@H]1C[C@H](N)[C@H](O)[C@H](C)O1 [Adriamycin],Survival rate (living/taotalx 100%),chick myocardial cell,36.0 ± 0.25 (*20) %
